# Values quoted from earlier work, collected in US20260201030A1, “ANTIBODY, ANTIBODY-DRUG CONJUGATE THEREOF AND USE THEREOF” (EVOPOINT BIOSCIENCES CO., LTD., priority 2021, published 2026).
# Details: FL118 alone; cited from earlier work
structure (smiles),measurement,value
"CC[C@@]1(O)C(=O)OCc2c1cc1n(c2=O)Cc2cc3cc4c(cc3nc2-1)OCO4 [FL118, (20S)-10,11-methylenedioxy camptothecin]",water solubility,extremely poor water solubility
